From paper PMC5182133 (Cell chemical biology, 2016)

How the values were obtained:
DCK [1] = biological target: T1, DCK (Homo sapiens, UniProt P27707); experiment: Affinity matrix pulldown and immunoblot for DCK; assay type: binding; conditions: CAL-51 lysate
H6PD [2] = biological target: T2, H6PD (Homo sapiens, UniProt O95479); experiment: Affinity matrix pulldown and immunoblot for H6PD; assay type: binding; conditions: CAL-51 lysate; competed with 20 μM free rucaparib
T2 sequence (O95479 20-791): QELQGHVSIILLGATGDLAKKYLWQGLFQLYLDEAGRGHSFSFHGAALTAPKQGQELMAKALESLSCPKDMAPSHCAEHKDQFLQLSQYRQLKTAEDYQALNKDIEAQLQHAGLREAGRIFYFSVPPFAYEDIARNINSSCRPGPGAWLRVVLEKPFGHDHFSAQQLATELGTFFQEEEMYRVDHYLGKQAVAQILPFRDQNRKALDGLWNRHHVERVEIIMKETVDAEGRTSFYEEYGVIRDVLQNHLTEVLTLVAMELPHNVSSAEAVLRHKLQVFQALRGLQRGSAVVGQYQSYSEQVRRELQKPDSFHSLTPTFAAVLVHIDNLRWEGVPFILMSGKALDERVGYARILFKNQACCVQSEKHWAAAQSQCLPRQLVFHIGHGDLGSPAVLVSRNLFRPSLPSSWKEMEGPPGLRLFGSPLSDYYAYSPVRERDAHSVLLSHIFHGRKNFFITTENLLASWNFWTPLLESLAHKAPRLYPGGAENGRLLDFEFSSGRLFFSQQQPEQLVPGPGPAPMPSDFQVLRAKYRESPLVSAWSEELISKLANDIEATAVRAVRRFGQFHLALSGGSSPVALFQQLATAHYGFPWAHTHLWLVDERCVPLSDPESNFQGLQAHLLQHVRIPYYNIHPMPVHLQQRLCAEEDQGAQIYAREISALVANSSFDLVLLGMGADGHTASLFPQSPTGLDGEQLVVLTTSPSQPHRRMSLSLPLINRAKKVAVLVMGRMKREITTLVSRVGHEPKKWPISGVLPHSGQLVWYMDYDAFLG

[3] = ref Haura et al., 2010; cited from earlier work
H6PD [4] = biological target: T2, H6PD; conditions: read-out: IC50 for H6PD inhibition (reported); ref Tagawa et al., 2015; cited from earlier work
A549 cells = conditions: 2 μM cytarabine, 3 days
DCK [5] = biological target: T1, DCK; conditions: compared to the other PARPi
CAL-51 shH6PD cells = experiment: Cell viability in CAL-51 shNT vs shH6PD cells; assay type: cell-based; conditions: CAL-51 shH6PD vs shNT, 5 d
CAL-51 H6PD-OE cells = experiment: Cell viability in CAL-51 parental vs H6PD-overexpressing cells; assay type: cell-based; conditions: CAL-51 H6PD-OE vs parental, 5 d
CAL-51 cells = experiment: Immunoblot of apoptosis markers in CAL-51 cells after PARPi treatment; assay type: cell-based; conditions: 48 h, 40 μM PARPi
H322 cells = experiment: H322 cell viability; assay type: cell-based; conditions: 5 d, CellTiterGlo
[6] = ref Plummer et al., 2008; cited from earlier work
[7] = reach as high as; ref Murray et al., 2014; cited from earlier work

T1 sequence (P27707 whole entry): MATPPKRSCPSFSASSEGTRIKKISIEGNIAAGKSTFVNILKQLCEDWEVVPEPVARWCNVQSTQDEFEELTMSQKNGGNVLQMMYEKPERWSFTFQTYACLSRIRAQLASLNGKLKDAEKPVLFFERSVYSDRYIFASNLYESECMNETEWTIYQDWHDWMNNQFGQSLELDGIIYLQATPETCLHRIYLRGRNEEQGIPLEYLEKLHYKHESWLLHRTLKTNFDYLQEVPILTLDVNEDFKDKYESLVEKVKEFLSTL

Compound: NCCCN1CCC[C@@H](c2ccc(-n3cc4cccc(C(N)=O)c4n3)cc2)C1 [c-niraparib]
- Enrichment of DCK by affinity matrix (immunoblot) (DCK [1]): confirmed

Compound: CN(CCCN)Cc1ccc(-c2[nH]c3cc(F)cc4c3c2CCNC4=O)cc1 [c-rucaparib]
- Enrichment of H6PD by affinity matrix (immunoblot) (H6PD [2]): specifically enriched

Compound: COc1cc2ncnc(Nc3ccc(F)c(Cl)c3)c2cc1OCCCN1CCOCC1 [gefitinib]
- Drug concentration in human tumor tissue relative to plasma levels [3]: up to 40 fold

Compound: O=c1c(-c2ccc(O)cc2)coc2cc(O)cc(O)c12 [genistein]
- IC50 (H6PD [4]): > 50 µM

Compound: NC(=O)c1cccc2cn(-c3ccc([C@@H]4CCCNC4)cc3)nc12 [niraparib]
- Rescue of A549 cells from cytarabine toxicity (A549 cells; DI-39 as positive control): dose-dependently rescued
- Concentrations needed to observe reduced cytarabine toxicity (A549 cells; A549 cells): 20 to 40 µM
- Inhibition of DCK activity in cell-free extracts (DCK [5]): specific inhibition

Compound: O=C(c1cc(Cc2n[nH]c(=O)c3ccccc23)ccc1F)N1CCN(C(=O)C2CC2)CC1 [olaparib]
- Effect of stable H6PD knockdown on potency (cell viability) (CAL-51 shH6PD cells): increased the potency

Compound: CNCc1ccc(-c2[nH]c3cc(F)cc4c3c2CCNC4=O)cc1 [rucaparib]
- Effect of stable H6PD overexpression on IC50 for inhibition of cell viability (CAL-51 H6PD-OE cells): increased the IC50
- PARP1 and caspase-3 cleavage compared to the other PARPi (CAL-51 cells): increased
- Viability of H322 cells at high concentrations compared to other PARPi (H322 cells): decreased more
- Plasma levels in patients [6]: 2700 nM
- Concentrations in murine tumors [7]: ~ 20 μM

Compound: Cn1ncnc1[C@H]1c2n[nH]c(=O)c3cc(F)cc(c23)N[C@@H]1c1ccc(F)cc1 [talazoparib]
- Effect of stable H6PD knockdown on potency (cell viability) (CAL-51 shH6PD cells): increased the potency
